Experimental data: patent US8703961B2, “Thiazole derivatives for the treatment of diseases such as cancer” (Merck Patent GmbH, priority 2009, dated 2014)

What was measured:
Assay in all cases: filter binding kinase assay
Format in all cases: biochemical
AURKA (Aurora A) = target: T1, AURKA (Aurora A) (Homo sapiens, UniProt O14965); details: for IC50: derived from % inhibition at 1 μM; for remaining activity at 1 µM: read-out: residual kinase activity Aurora A
T1 construct: purchased
T1 sequence (O14965 1-403): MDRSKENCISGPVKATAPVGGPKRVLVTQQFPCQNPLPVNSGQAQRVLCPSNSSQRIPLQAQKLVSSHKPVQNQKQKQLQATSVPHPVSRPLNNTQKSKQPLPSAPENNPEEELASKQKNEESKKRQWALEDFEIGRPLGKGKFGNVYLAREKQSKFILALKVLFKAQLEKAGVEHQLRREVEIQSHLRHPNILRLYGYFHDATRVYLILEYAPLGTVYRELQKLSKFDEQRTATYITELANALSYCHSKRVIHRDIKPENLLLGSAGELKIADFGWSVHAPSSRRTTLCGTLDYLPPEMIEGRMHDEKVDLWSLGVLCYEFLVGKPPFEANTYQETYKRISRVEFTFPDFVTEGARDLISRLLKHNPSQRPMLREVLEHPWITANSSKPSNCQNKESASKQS
Procedure, shortened: (§1)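 Each reaction ran at ambient temperature following a five-minute compound preincubation, was started with ATP (5, 20 or 50 […] stock, per enzyme) and stopped with acid; substrate phosphorylation was read by scintillation counting of P81 filters.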

BRSK2 = target: T2, BRSK2 (Homo sapiens, UniProt Q8IWQ3); details: derived from % inhibition at 1 μM
T2 construct: purchased
T2 sequence (Q8IWQ3 1-736): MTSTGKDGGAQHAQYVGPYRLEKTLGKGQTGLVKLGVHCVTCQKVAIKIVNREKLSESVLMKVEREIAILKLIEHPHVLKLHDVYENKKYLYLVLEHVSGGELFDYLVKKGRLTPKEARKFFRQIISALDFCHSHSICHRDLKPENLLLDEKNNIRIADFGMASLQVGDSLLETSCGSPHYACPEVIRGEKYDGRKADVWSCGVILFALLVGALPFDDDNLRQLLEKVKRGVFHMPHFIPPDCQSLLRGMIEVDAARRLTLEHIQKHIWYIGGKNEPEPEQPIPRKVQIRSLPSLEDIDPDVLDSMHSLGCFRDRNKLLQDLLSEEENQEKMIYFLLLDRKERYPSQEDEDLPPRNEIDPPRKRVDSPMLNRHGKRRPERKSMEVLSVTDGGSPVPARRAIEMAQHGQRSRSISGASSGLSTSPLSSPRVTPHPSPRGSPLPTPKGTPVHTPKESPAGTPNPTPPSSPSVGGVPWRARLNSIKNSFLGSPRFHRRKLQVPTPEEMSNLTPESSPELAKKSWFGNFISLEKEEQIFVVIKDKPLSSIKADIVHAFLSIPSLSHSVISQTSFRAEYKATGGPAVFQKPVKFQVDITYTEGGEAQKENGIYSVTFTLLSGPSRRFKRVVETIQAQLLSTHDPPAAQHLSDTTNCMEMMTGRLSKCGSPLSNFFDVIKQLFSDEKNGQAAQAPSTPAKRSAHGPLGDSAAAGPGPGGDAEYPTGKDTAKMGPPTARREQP
Procedure, shortened: as §1

EEF2K = target: T3, EEF2K (Homo sapiens, UniProt O00418); details: derived from % inhibition at 1 μM
T3 construct: purchased
Procedure, shortened: as §1

MAP3K9 = target: T4, MAP3K9 (Homo sapiens, UniProt P80192); details: derived from % inhibition at 1 μM
T4 construct: purchased
T4 sequence (P80192 whole entry, species assumed): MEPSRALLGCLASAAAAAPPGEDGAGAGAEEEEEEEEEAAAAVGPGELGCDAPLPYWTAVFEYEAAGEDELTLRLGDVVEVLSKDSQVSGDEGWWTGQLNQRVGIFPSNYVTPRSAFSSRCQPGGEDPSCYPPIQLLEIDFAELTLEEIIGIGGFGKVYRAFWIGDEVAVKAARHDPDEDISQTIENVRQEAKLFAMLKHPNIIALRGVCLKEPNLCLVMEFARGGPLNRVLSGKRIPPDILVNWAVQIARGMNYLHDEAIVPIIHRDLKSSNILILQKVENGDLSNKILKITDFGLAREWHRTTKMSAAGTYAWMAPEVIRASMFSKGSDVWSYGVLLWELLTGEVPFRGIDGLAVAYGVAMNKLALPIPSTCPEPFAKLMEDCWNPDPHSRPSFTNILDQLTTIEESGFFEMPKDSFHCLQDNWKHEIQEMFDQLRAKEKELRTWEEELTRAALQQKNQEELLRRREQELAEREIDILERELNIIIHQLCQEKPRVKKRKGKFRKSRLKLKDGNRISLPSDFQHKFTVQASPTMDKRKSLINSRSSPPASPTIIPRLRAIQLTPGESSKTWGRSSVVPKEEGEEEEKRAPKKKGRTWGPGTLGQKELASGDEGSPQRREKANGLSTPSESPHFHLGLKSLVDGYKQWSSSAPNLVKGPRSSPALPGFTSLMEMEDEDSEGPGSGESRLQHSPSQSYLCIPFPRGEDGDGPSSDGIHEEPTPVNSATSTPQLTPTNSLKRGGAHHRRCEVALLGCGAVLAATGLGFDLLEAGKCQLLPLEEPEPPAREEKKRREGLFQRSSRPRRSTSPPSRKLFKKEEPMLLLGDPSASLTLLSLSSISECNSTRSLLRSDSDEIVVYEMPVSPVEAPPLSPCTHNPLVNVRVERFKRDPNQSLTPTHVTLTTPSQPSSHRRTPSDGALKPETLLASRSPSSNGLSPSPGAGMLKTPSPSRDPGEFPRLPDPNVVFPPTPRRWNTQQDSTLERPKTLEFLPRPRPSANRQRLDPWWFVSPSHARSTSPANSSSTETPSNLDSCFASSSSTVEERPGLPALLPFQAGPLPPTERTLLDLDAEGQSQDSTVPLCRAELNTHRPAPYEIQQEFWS
Procedure, shortened: as §1

MAPK1 = target: T5, MAPK1 (Homo sapiens, UniProt P28482); details: derived from % inhibition at 1 μM; first MAPK1 line
T5 construct: purchased
T5 sequence (P28482 whole entry, species assumed): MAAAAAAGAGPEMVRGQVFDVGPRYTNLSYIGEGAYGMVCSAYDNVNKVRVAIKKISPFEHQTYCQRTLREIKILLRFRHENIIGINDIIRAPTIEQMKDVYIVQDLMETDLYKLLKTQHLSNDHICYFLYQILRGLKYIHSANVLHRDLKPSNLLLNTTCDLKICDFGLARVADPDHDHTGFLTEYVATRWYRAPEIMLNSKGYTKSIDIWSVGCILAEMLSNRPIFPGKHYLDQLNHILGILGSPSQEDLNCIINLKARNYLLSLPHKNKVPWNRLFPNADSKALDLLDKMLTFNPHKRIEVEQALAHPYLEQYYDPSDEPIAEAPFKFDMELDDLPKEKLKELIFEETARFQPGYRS
Procedure, shortened: as §1

MAPK10 = target: T6, MAPK10 (Homo sapiens, UniProt P53779); details: derived from % inhibition at 1 μM
T6 construct: purchased
T6 sequence (P53779 whole entry, species assumed): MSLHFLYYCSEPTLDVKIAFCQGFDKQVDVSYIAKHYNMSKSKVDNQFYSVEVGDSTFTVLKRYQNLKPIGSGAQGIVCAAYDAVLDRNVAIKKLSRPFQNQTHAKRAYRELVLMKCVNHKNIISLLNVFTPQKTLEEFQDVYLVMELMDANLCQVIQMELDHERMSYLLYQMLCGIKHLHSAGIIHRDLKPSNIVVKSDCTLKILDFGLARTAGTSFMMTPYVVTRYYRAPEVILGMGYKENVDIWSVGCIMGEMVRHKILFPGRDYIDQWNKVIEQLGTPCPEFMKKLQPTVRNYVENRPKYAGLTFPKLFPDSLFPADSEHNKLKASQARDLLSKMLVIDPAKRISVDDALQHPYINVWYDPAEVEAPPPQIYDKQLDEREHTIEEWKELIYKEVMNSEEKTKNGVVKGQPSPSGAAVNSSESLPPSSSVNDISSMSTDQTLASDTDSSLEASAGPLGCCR
Procedure, shortened: as §1

MARK2 = target: T7, MARK2 (Homo sapiens, UniProt Q7KZI7); details: for IC50: derived from % inhibition at 1 μM
T7 construct: purchased
T7 sequence (Q7KZI7 whole entry, species assumed): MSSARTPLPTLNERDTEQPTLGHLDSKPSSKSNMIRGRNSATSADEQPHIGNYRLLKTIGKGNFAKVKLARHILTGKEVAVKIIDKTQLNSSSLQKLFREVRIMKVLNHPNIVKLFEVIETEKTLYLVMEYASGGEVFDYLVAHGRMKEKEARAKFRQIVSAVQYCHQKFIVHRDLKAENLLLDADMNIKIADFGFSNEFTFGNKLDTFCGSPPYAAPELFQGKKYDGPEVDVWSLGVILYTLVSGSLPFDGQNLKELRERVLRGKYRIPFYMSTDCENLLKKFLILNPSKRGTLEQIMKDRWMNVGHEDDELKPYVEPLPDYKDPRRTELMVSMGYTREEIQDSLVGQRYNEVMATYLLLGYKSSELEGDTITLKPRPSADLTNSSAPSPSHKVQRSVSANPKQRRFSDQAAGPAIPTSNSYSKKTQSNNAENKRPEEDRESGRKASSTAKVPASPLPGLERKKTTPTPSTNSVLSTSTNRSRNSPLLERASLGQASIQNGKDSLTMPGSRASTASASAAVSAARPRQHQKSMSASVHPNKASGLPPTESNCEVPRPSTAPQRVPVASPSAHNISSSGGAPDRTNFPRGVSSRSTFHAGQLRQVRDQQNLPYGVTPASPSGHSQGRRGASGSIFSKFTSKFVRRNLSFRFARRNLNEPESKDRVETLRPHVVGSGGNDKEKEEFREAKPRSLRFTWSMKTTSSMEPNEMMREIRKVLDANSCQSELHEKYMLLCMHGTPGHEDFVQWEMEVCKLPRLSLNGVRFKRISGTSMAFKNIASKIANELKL
Procedure, shortened: as §1

MARK4 = target: T8, MARK4 (Homo sapiens, UniProt Q96L34); details: derived from % inhibition at 1 μM
T8 construct: purchased
T8 sequence (Q96L34 1-752): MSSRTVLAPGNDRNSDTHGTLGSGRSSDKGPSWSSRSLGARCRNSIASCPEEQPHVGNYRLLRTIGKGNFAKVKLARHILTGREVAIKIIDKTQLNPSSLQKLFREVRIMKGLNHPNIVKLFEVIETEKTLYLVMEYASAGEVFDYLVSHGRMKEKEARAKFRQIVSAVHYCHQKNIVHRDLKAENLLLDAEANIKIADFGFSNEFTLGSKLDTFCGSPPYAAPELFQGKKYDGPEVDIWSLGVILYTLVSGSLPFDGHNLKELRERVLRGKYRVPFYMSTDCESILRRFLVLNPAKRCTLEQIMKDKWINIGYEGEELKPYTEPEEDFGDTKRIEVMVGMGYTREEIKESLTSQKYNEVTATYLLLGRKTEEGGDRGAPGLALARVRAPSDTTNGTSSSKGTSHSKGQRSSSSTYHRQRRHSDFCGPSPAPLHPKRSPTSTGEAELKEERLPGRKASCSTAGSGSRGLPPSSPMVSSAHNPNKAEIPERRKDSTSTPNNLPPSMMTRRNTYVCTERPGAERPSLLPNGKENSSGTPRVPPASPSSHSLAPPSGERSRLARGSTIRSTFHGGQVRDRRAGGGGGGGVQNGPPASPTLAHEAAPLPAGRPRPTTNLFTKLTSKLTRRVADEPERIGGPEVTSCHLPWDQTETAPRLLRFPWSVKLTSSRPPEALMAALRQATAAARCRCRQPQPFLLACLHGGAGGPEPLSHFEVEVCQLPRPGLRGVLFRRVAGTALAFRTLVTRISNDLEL
Procedure, shortened: as §1

MINK1 = target: T9, MINK1 (Homo sapiens, UniProt Q8N4C8); details: derived from % inhibition at 1 μM
T9 construct: purchased
T9 sequence (Q8N4C8 whole entry, species assumed): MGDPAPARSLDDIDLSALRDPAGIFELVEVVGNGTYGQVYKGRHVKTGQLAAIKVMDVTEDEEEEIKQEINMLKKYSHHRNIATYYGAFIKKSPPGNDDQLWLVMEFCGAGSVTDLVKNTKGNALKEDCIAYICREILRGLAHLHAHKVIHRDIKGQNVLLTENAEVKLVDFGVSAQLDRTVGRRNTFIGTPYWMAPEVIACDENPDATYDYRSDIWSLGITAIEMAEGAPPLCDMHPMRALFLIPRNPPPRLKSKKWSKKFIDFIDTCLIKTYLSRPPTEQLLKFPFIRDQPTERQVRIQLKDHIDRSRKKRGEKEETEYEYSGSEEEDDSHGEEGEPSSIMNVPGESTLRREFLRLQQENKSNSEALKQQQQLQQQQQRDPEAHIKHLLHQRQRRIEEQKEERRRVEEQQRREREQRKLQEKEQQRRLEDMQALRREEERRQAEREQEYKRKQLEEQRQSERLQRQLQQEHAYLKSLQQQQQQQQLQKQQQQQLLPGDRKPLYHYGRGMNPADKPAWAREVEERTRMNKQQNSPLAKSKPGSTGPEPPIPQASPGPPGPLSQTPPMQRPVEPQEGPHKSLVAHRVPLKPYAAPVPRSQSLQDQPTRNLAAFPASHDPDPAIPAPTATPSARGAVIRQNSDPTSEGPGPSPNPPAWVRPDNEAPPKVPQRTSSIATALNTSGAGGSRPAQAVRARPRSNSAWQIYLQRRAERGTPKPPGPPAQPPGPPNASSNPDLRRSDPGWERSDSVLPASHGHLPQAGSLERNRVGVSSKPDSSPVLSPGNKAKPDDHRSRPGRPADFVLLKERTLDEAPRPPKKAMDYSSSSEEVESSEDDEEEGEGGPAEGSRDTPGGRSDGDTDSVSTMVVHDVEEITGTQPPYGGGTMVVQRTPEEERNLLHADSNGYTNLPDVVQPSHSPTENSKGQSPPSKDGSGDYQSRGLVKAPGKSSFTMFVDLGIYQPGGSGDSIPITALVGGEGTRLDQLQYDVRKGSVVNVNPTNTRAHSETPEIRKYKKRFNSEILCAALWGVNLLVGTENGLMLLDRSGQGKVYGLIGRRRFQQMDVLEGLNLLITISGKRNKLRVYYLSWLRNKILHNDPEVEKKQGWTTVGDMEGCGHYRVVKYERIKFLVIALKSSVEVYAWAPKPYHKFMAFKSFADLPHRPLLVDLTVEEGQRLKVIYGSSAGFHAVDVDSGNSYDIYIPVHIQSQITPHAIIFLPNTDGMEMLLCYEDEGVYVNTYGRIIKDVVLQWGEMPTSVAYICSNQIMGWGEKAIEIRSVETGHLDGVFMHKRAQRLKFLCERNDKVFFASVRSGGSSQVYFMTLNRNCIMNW
Procedure, shortened: as §1

NEK6 = target: T10, NEK6 (Homo sapiens, UniProt Q9HC98); details: derived from % inhibition at 1 μM
T10 construct: purchased
T10 sequence (Q9HC98 whole entry, species assumed): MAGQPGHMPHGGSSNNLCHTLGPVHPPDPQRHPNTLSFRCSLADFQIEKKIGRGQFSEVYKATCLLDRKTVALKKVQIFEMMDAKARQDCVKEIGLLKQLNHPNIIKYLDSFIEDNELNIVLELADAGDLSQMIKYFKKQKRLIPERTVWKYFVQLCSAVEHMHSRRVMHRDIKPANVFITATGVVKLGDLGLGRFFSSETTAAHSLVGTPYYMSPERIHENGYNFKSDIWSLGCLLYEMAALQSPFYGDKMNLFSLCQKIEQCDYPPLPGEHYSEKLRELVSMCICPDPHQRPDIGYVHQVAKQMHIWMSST
Procedure, shortened: as §1

For `CC(C)(C)OC(=O)Nc1nc(-c2ccncc2)sc1C#CCN1CCOCC1` [Compound A25, tert-butyl[5-(3-morpholin-4-ylprop-1-ynyl)-2-pyridin-4-ylthiazol-4-yl]-carbamate], the IC50 (AURKA (Aurora A)) was > 1 µM, the IC50 (BRSK2) was > 1 µM and the IC50 (EEF2K) was > 1 µM. For the same compound, the IC50 (MAP3K9) was > 1 µM, the IC50 (MAPK1) was > 1 µM and the IC50 (MAPK10) was > 1 µM. For the same compound, the IC50 (MARK2) was > 1 µM, the IC50 (MARK4) was 10 to 100 µM and the IC50 (MINK1) was 10 to 100 µM. The IC50 (NEK6) was 1 to 10 µM.

With `c1ccc(Cc2c[nH]c3ncsc23)cc1` [Compound A7, 6-benzyl-4H-pyrrolo[2,3-d]thiazole] the IC50 (AURKA (Aurora A)) was 0.01 to 1 µM, the remaining activity at 1 µM (AURKA (Aurora A)) was 33% and the IC50 (BRSK2) was > 1 µM. The IC50 (EEF2K) was 10 to 100 µM, the IC50 (MAP3K9) was 1 to 10 µM and the IC50 (MAPK1) was > 1 µM. For the same compound, the IC50 (MAPK10) was > 1 µM, the IC50 (MARK2) was 10 to 100 µM and the IC50 (MARK4) was > 1 µM. The IC50 (MINK1) was 1 to 10 µM and the IC50 (NEK6) was 10 to 100 µM.

In the case of `Nc1ncsc1C#Cc1cnc2[nH]ccc2c1` [Compound A22, 5-(1H-pyrrolo[2,3-b]pyridin-5-ylethynyl)thiazol-4-ylamine], the IC50 (AURKA (Aurora A)) is reported as 0.01 to 1 µM, the remaining activity at 1 µM (AURKA (Aurora A)) is reported as 39% and the IC50 (BRSK2) is reported as > 1 µM. For the same compound, the IC50 (EEF2K) was 10 to 100 µM, the IC50 (MAP3K9) was 1 to 10 µM and the IC50 (MAPK1) was 10 to 100 µM. For the same compound, the IC50 (MAPK10) was > 1 µM, the IC50 (MARK2) was 0.01 to 1 µM and the remaining activity at 1 µM (MARK2; read-out: residual kinase activity MARK2) was 31%. The IC50 (MARK4) was 10 to 100 µM, the IC50 (MINK1) was 1 to 10 µM and the IC50 (NEK6) was > 1 µM.

`Nc1ncsc1C#Cc1cccc(O)c1` [Compound A27, 3-(4-aminothiazol-5-ylethynyl)phenol] gave an IC50 (AURKA (Aurora A)) of 1 to 10 µM, an IC50 (BRSK2) of 10 to 100 µM and an IC50 (EEF2K) of 1 to 10 µM. It also gave an IC50 (MAP3K9) of 1 to 10 µM, an IC50 (MAPK1) of 1 to 10 µM and an IC50 (MAPK10) of 1 to 10 µM. The IC50 (MARK2) was 10 to 100 µM, the IC50 (MARK4) was 1 to 10 µM and the IC50 (MINK1) was 1 to 10 µM. It also gave an IC50 (NEK6) of 10 to 100 µM.

In the case of `CC(C)(C)OC(=O)Nc1ncsc1C#CCN1C(=O)c2ccccc2C1=O` [Compound A26, tert-butyl{5-[3-(1,3-dioxo-1,3-dihydroisoindol-2-yl)prop-1-ynyl]-thiazol-4-yl}carbamate], the IC50 (AURKA (Aurora A)) is reported as 1 to 10 µM, the IC50 (BRSK2) is reported as > 1 µM and the IC50 (EEF2K) is reported as 10 to 100 µM. The IC50 (MAP3K9) was 1 to 10 µM, the IC50 (MAPK1) was 10 to 100 µM and the IC50 (MAPK10) was > 1 µM. For the same compound, the IC50 (MARK2) was 1 to 10 µM, the IC50 (MARK4) was > 1 µM and the IC50 (MINK1) was 10 to 100 µM. For the same compound, the IC50 (NEK6) was 10 to 100 µM.
